# In PMC8703450, “New Heterocyclic Combretastatin A-4 Analogs: Synthesis and Biological Activity of Styryl-2(3H)-benzothiazolones” (Pharmaceuticals, 2021):
# Columns and labels:
# α,β-tubulin = experiment: In vitro quantification of polymeric vs. soluble tubulin fractions in EA.hy926 cells; format: cell-based, human; settings: for soluble vs. polymerized tubulin ratio: EA.hy926, 1 µM, 6 h, DMSO control 2.33 ± 0.14
# Procedure: To assess the early effects on the microtubule cytoskeleton in vitro, EA.hy926 cells were cultured for 24 h in 6-cm dishes (3 × 10^5 cells). They were exposed to […] (control), 1 μM CA-4, paclitaxel, or increasing concentrations of 26Z (50, 100, 250, 2500, 10,000 nM) for 6 h. Cells were washed with PBS and lysed directly in the dishes with hypotonic lysis buffer (20 mM Tris-HCl, 1 mM MgCl2, 2 mM EGTA, 0.5% Triton X-100, glycerol 10%, pH 6.8), supplemented with protease inhibitors (2 μg/mL leupeptin, 2 μg/mL pepstatin, 0.4 mM Na vanadate, 0.5 mM PMSF, 1 mM DTT), for 3 min at 30 °C. The soluble fraction was immediately collected, mixed with 5× sample buffer, and boiled at 95 °C for 5 min. The polymerized fraction was collected directly from the culture dish following 10 min of incubation at room temperature with 1× sample buffer.
# For the concentration-dependent assay, the cells were harvested by scraping and centrifuged at 1000 g for 5 min, and then lysed with the hypotonic cell lysis buffer for 10 min at room temperature. Tubulin fractions were obtained by centrifugation at 12,000 × g for 10 min.
# Equal volumes of the samples were subjected to 10% SDS-PAGE followed by western blotting. Detection of β-tubulin content was accomplished with an anti-β-tubulin mouse monoclonal antibody (sc-101527, Santa Cruz Biotechnology).
# EA.hy926 cells [1] = experiment: MTT cytotoxicity / growth inhibition assay, EA.hy926; format: cell-based, human; settings: Homo sapiens; for IC50: EA.hy 926, 72 h of treatment
# Procedure: The endothelial cell line (EA.hy926) was kindly provided by Dr. C-J.S. Edgell—University of North Carolina, USA. Cells were cultured in 4.5 g/L D-Glucose DMEM/F12 medium, supplemented with 10% fetal bovine serum (FBS, Cytogen GmBH, Greven, Germany) and 100 U/mL penicillin and streptomycin (Lonza BioWhitaker, Verviers, Belgium). The other cell lines used are described in Table S3.1. Cell cultures were maintained in an incubator at 37 °C with 95% humidity and 5% CO2 and were routinely found free of mycoplasma.
# (§1) All tested compounds were dissolved in DMSO at 25 mM initial concentration and diluted with medium to obtain the working concentrations (0.01 nM–250 µM). Serial drug dilutions were prepared in medium immediately before each experiment. The DMSO working concentration in the medium was […]. For the MTT assay, cells were seeded into 96-well microtitre plates at a density of 1 × 10^4 in 100 µL complete medium per well. They were further incubated for 24 h, followed by treatment with CA-4 analogs up to 72 h. Cell viability was determined using the MTT assay. Ten µL of MTT solution (5 mg/mL) was added to each well and further incubated for 3 h at 37 °C. To dissolve the formazan product, 100 µL/well of 99.5% isopropanol was added. Cell viability was determined by measuring absorbance at 550/630 nm using a DTX880 plate reader (Beckman Coulter, USA). Results, expressed as concentrations that inhibit 20% (IC20), 50% (IC50), and 80% (IC80) of cell growth, were calculated using GraphPad Prism 8.0.1.
# Colon-26 cells = experiment: MTT cytotoxicity assay, Colon-26; format: cell-based; settings: Mus musculus, 72 h
# Procedure: as §1
# (§2) Table S 3.1. Description of eukaryotic cell lines used for MTT assay.
# Panel Cell line Origin Tissue, characteristics Source Culture conditions […]
# (h) lung carcinoma ATCC, CCL-185 U/mL penicillin, 100 […]
# lung, bronchus; insulin, rhEGF, GA-BEAS-2B h epithelial virus ATCC, CRL- 1000, BPE, transformed 9609 transferrin,
# HT-29 h colon, colorectal Radostina adenocarcinoma Alexandrova 3.1 g/L D-Glucose […]
# A549 cells = experiment: MTT cytotoxicity assay, A549; format: cell-based; settings: Homo sapiens, 72 h
# Procedure: as §1, §2
# Panel Cell line Origin Tissue, characteristics Source Culture conditions
# (h) lung carcinoma ATCC, CCL-185 U/mL penicillin, 100
# lung, bronchus; insulin, rhEGF, GA- […]
# Colon BAS) 10% (v/v) FBS, 100
# [2] = tested on: colchicine binding site of β-tubulin; experiment: Colchicine-binding site assay (EBI competition) in EA.hy926 cells; format: cell-based, human; settings: then 100 µM EBI 2 h, Western blot
# Procedure: N,N′-ethylene-bis(iodoacetamide) (abcam, ab144980) was dissolved in DMSO to a final concentration of 50 mM. EA.hy926 cells were seeded at density of 1 × 10^5 cells/mL and incubated overnight. […] Cells were lysed with Laemmli buffer and subjected to Western blot analysis for β-tubulin [66, 67]. The detailed Western blot method is as shown above.
# EA.hy926 cells [3] = experiment: Immunofluorescence of mitotic spindles (α-tubulin); format: cell-based, human; settings: 24 h
# Procedure: Indirect immunofluorescence was used to examine the effect of 26Z on α-tubulin in EA.hy 926 cells. A total of 1 × 10^4 cells grown on coverslips were washed with PBS and fixed with 3.7% buffered paraformaldehyde. Single fluorescence cell labeling was performed, as described by Apostolova et al., with a primary chicken antibody against α-tubulin (ab89984, Abcam) for 2 h. Cells were washed three times with PBS for 5 min and incubated for 60 min with a goat anti-chicken secondary antibody labeled with AlexaFluor-488 (ab150173, Abcam). F-actin was detected using AlexaFluor-568 Phalloidin (Invitrogen, MA, USA). Following three washes with PBS and two in water, the slides were mounted in UltraCruz fluorescence mounting medium with DAPI (sc-24941, Santa Cruz Biotechnology, USA). Fluorescence microscopy was performed with a Carl Zeiss Axiovert 200 M Inverted Microscope and Andor Dragonfly 505 Confocal Microscope equipped with an iXon Ultra 888 EMCCD camera (Andor, Oxford Instruments, Belfast, Northern Irelands).
SMILES,"soluble vs. polymerized tubulin ratio (α,β-tubulin)",IC50 (EA.hy926 cells [1]),IC50 (Colon-26 cells),IC50 (A549 cells),"tubulin EBI-adduct formation ([2]; EA.hy926, 10 μM compound 2 h)","number of spindle poles (multipolarity) (EA.hy926 cells [3]; EA.hy926, IC50 (130 nM))","number of spindle poles (multipolarity) (EA.hy926 cells [3]; EA.hy926, IC80 (300 nM))","concentration above which the depolymerizing effect is clearly visible (α,β-tubulin; EA.hy926, 6 h, 0.01–10 μM)","IC20 (EA.hy926 cells [1]; EA.hy 926, concentration that inhibits 20% of cell growth)","IC80 (EA.hy926 cells [1]; EA.hy 926, concentration that inhibits 80% of cell growth)","tubulin EBI-adduct formation ([2]; EA.hy926, 25 µM compound 2 h)"
"COc1ccc(/C=C\c2cc(OC)c(OC)c(OC)c2)cc1O [CA-4, Combretastatin A-4]",3.3 ± 0.61,3.3 ± 0.2 nM,660 ± 82 nM,3010 ± 160 nM,inhibited,,,,,,
"COc1cc(/C=C\c2ccc3c(c2)sc(=O)n3C)cc(OC)c1OC [Compound 26Z, (Z)-3-methyl-6-(3,4,5-trimethoxystyryl)-2(3H)-benzothiazolone]",2.74 ± 0.43,130 ± 10 nM,,,,3.9 ± 0.99,8.8 ± 2.3,higher than 0.05 μM,40 ± 10 nM,300 ± 40 nM,inhibited
